Like-named read-outs stand apart in the source and are kept apart here.
Experiments:
[1] = test system: HL-60 (ATCC CCL-240) cells; test: Analysis of DNA fragmentation; type: cell-based, Human; conditions: HL-60 cells
Method: (§1) HL-60 (ATCC CCL-240) cells were cultured at 37° C. in RPMI 1640 medium (Bio Whittaker) containing 10% fetal calf serum (JRH) which had been treated at 56° C. for 30 minutes and suspended in RPMI 1640 medium at a concentration of 2.5×10^5 cells/4.5 ml. […] each of aqueous solutions of the compound (2) at a concentration of 10, 50 or 100 mM, the compound (7) at a concentration of 500, 1000 or 1500 μM, the compound (9) at a concentration of 750, 1500 or 3000 μM, the compound (11) at a concentration of 750, 1500 or 3000 μM, or the compound (14) at a concentration of 750, 1500 or 3000 μM was added to 4.5 ml of the suspension. The mixtures were incubated at 37° C. for 24 hours in the presence of 5% CO2. Measurement of apoptotic cells using FACScan as described in Saibo Kogaku, Bessatsu (Cell Technology, Suppl.) Jikken Protocol Series: Apoptosis Jikken Protocol (Experimental Protocol Series: Experimental Protocols for Apoptosis) (Shujun-sha) pp. 129-130 and analysis of DNA fragmentation as described in Bio Manual UP Series: […] Apoptosis Jikken-ho (Bio Manual UP Series: Current Experimental Methods for Apoptosis) (Yodo-sha) pp. 61-63 were carried out using cells cultured for 24 or 48 hours in the same manner as that described above.

[2] = test system: HL-60 (ATCC CCL-240) cells; test: Apoptosis morphology in HL-60 cells under optical microscope; type: cell-based, Human; conditions: 24 hours
Method: HL-60 (ATCC CCL-240) cells were cultured at 37° C. in RPMI 1640 medium (Bio Whittaker) containing 10% fetal calf serum (JRH) which had been treated at 56° C. for 30 minutes and suspended in RPMI 1640 medium at a concentration of 2.5×10^5 cells/4.5 ml. […] each of aqueous solutions of the compound (2) at a concentration of 10, 50 or 100 mM, the compound (7) at a concentration of 500, 1000 or 1500 μM, the compound (9) at a concentration of 750, 1500 or 3000 μM, the compound (11) at a concentration of 750, 1500 or 3000 μM, or the compound (14) at a concentration of 750, 1500 or 3000 μM was added to 4.5 ml of the suspension. The mixtures were incubated at 37° C. for 24 hours in the presence of 5% CO2. The cultured cells were examined under an optical microscope.

[3] = test system: HL-60 (ATCC CCL-240) cells; test: Measurement of apoptotic cells using FACScan; type: cell-based, Human; conditions: HL-60 cells, 24 hours
Method: as §1

[4] = Conversion into DGE in culture medium (thin-layer chromatography); type: in vitro ADME; conditions: 10 mM in RPMI 1640 medium with 10% calf serum, 37° C., 4 hours
Method: The compound (7) or the compound (9) synthesized in Example 1 was dissolved at a final concentration of 10 mM in RPMI 1640 medium supplemented with 10% calf serum. These samples were allowed to stand at 37° C. for 4 hours. […] each of the samples was then subjected to thin-layer chromatography using chloroform:methanol=5:1 as a developing solvent. Detection was carried out using orcinol-sulfuric acid.
For each sample, a spot with Rf value of 0.5, the same value as that for the compound of general formula IV in which Z is CH2OH and Y is H (L-glycero-1,5-epoxy-1αβ,6-dihydroxy-cis-hex-3-en-2-one, hereinafter referred to as DGE), was detected.

[5] = test system: Human promyelocytic leukemia HL-60 cells; test: Antiproliferation activity against HL-60 cells (MTT method); type: cell-based; conditions: 48 hour incubation
Method: Human promyelocytic leukemia HL-60 cells (ATCC CCL-240) were cultured at 37° C. in RPMI 1640 medium (Gibco) containing 10% of fetal calf serum (JRH Bioscience) which had been treated at 56° C. for 30 minutes, and suspended in the same medium at a concentration of 5000 cells/90 μl. Each 90 μl portion of the suspension was distributed into each well of a 96-well plate (Falcon). To the suspension in each well was added 10 μl of one the following samples, and incubated at 37° C. in the presence of 5% CO2. The samples were 2-, 4-, 8-, 16-, 32-, 64- or 128-dilutions of filter-sterilized 200 mM aqueous solution of the compound (2) obtained in Example 1, 50 mM aqueous solution of the compound (7), 50 mM aqueous solution of the compound (9), 100 mM aqueous solution of the compound (11), 100 mM aqueous solution of the compound (14), 20 mM aqueous solution of the compound (17), 12.5 mM aqueous solution of the compound (19) or 12.5 mM aqueous solution of the compound (21) with sterile water, as well as water. After 48 hour from the initiation of the incubation, the numbers of viable cells calculated based on the absorbance measured according to the MTT method as described in “Apoptosis Jikken Protocol” (Syuzyun-sha, Seiichi Tanuma, ed., pp. 156 (1994)) were compared each other.

[6] = test system: HL-60 (ATCC CCL-240) cells; test: Viability of HL-60 cells by Trypan Blue staining; type: cell-based; conditions: Homo sapiens, read-out: Viability50, concentration that results in a viability of 50%
Method: HL-60 (ATCC CCL-240) cells were cultured at 37° C. in RPMI 1640 medium (Bio Whittaker) containing 10% fetal calf serum (JRH) which had been treated at 56° C. for 30 minutes and suspended in RPMI 1640 medium at a concentration of 2.5×10^5 cells/4.5 ml.
[…] each of aqueous solutions of the compound (2) at a concentration of 10, 50 or 100 mM, the compound (7) at a concentration of 500, 1000 or 1500 μM, the compound (9) at a concentration of 750, 1500 or 3000 μM, the compound (11) at a concentration of 750, 1500 or 3000 μM, or the compound (14) at a concentration of 750, 1500 or 3000 μM was added to 4.5 ml of the suspension. The mixtures were incubated at 37° C. for 24 hours in the presence of 5% CO2.
A portion of the cells cultured for 24 or 48 hours as described in Example 4 was stained with 0.4% Trypan Blue and examined under an optical microscope. The number of viable cells which were not stained and the number of dead cells which were stained blue were counted. The concentration of each of the compounds (2), (7), (9), (11) and (14) that results in a viability of 50% (Viability50 mM) was determined.

conversion into DGE (spot with Rf value of 0.5, the same value as DGE) [4]: conversion into DGE was also observed | IC50 ([5]; Homo sapiens, HL-60 cells, read-out: IC50, concentration at which 50% of the proliferation is inhibited): 0.86 mM | IC50 ([6]; 24 hours): 18.1 mM | IC50 ([6]; 48 hours): 3.4 mM
SMILES: O=C[C@H](O)[C@H]1OC[C@@H](O)[C@@H]1O [Compound (2), 3,6-anhydro-D-galactose, reference compound]
final concentration at which DNA fragmentation was observed ([1]; 24 hours): ≥ 5 mM | final concentration at which DNA fragmentation was observed ([1]; 48 hours): ≥ 1 mM | final concentration at which condensation of nuclei, shrinking of cells and formation of apoptotic bodies were observed [2]: ≥ 5 mM | final concentration at which apoptotic cells were observed [3]: ≥ 5 mM | antiproliferation activity against HL-60 cells [5]: exhibited antiproliferation activities

Reference: patent US6518302B1, “Remedies” (Takara Shuzo Co., Ltd., priority 1999, dated 2003)
